Laboratory results as given in patent US8865704B2, “Wnt pathway antagonists” (Siena Biotech S.p.A., priority 2009, dated 2014).

Tested on: Wnt/β-catenin pathway
Assay: Wnt reporter assay (TCF-Luciferase, Firefly) in DBTRG-05MG cells
Assay type: cell-based
Conditions: Homo sapiens, 24 hours after compound addition
Description: TCF-Luciferase: Three copies of a 4×TCF responsive elements were cloned into the pcDNA3.1/Zeo(+) vector (Invitrogen) after deletion of the constitutive CMV promoter and the insertion of the Firefly Luciferase from Promega (phFL-TK) to measure the activity of the Wnt/β-catenin pathway. The resulting plasmid was sequenced for quality control.
Cells were grown in 20 μg/ml Zeocin and 20 μg/ml Zeocin plus 30 μg/ml Hygromicin respectively. The cells were plated at a density of 6500 cells/well in poly-D-lysine pre-treated 96 well-plates.
IC50 determination: 36 hours after plating cells were incubated with 8-points (60 μM-40 μM-20 μM-10 μM-5 μM-1.66 μM-0.55 μM-0.185 μM) dilutions compound (0.6% DMSO (v/v)). Each compound was tested in triplicate in single plate. Luciferase detection was done with Dual-Luciferase Reporter Assay System (Promega). 24 hours after compound addition, media was removed and 30 μl of 1× lysis buffer was added to each well for 30 minutes. To each well 45 μl of Dual-Glo Luciferase reagent (Promega) were added and after 1 second delay Luciferase was detected for 1 second using Mithras LB940 instrument. After Firefly luciferase quantification 45 μl of Dual Stop & Glo reagent (Promega) were added to each well and Firefly Renilla was detected using the same parameters described before.
Data were expressed as % of control for Firefly and Renilla luciferase independently; values were calculated using XLFit version 4.2, with a four parameters sigmoid function (XLFit model 205).

SMILES | IC50
Cn1c(=O)n(C[C@H]2CC[C@H](C(=O)N3CCN(c4ccccc4)CC3)CC2)c(=O)c2ccccc21 [Example 2, trans-1-Methyl-3-[4-(4-phenyl-piperazine-1-carbonyl)-cyclohexylmethyl]-1H-quinazoline-2,4-dione] | 0.3 to 30 µM
CCN1CCN(C(=O)[C@H]2CC[C@H](Cn3c(=O)c4cc(OC)ccc4n(C)c3=O)CC2)CC1=O [Example 93] | 0.3 to 30 µM
O=C(C1CC1)N1CCN(C(=O)[C@H]2CC[C@H](Cn3c(=O)[nH]c4ccc(Cl)cc4c3=O)CC2)CC1 [Example 63] | 0.3 to 30 µM
COc1ccc2[nH]c(=O)n(C[C@H]3CC[C@H](C(=O)N4CCN(C(=O)C5CC5)[C@H](C)C4)CC3)c(=O)c2c1 [Example 157] | 0.3 to 30 µM
COc1ccc2[nH]c(=O)n(C[C@H]3CC[C@H](C(=O)N4CCN(C(=O)C5CCC5)CC4)CC3)c(=O)c2c1 [Example 106] | 0.3 to 30 µM
CCC(C)C(=O)N1CCN(C(=O)[C@H]2CC[C@H](Cn3c(=O)[nH]c4ccc(OC)cc4c3=O)CC2)CC1 (stereo partly drawn) [Example 101] | 0.3 to 30 µM
COCC(=O)N1CCN(C(=O)[C@H]2CC[C@H](Cn3c(=O)[nH]c4ccc(OC)cc4c3=O)CC2)[C@@H](C)C1 [Example 133] | 0.3 to 30 µM
O=C(C1CCCO1)N1CCN(C(=O)[C@H]2CC[C@H](Cn3c(=O)[nH]c4ccccc4c3=O)CC2)CC1 (stereo partly drawn) [Example 4, 3-{4-[4-(Tetrahydro-furan-2-carbonyl)-piperazine-1-carbonyl]-cyclohexylmethyl}-1H-quinazoline-2,4-dione] | 0.3 to 30 µM
COc1ccc2c(c1)c(=O)n(C[C@H]1CC[C@H](C(=O)N3CCN(C(=O)[C@H]4CCCO4)CC3)CC1)c(=O)n2C [Example 131] | 0.3 to 30 µM
COc1ccc2c(c1)c(=O)n(C[C@H]1CC[C@H](C(=O)Nc3ccon3)CC1)c(=O)n2C [Example 193] | 0.3 to 30 µM
O=C(C1CC1(F)F)N1CCN(C(=O)[C@H]2CC[C@H](Cn3c(=O)[nH]c4ccccc4c3=O)CC2)CC1 (stereo partly drawn) [Example 108] | 0.3 to 30 µM
COCC(=O)N1CCN(C(=O)[C@H]2CC[C@H](CN3Cc4ccccc4N(C)C3=O)CC2)CC1 [Example 69] | 0.3 to 30 µM
CCOc1ccc2c(c1)c(=O)n(C[C@H]1CC[C@H](C(=O)N3CCN(c4ccncc4)CC3)CC1)c(=O)n2C [Example 197] | 0.3 to 30 µM
COc1ccc2c(c1)c(=O)n(C[C@H]1CC[C@H](C(=O)N3CCN(CC4CC4)C(=O)C3)CC1)c(=O)n2C [Example 132] | 0.3 to 30 µM
COc1ccc2c(c1)c(=O)n(C[C@H]1CC[C@H](C(=O)N3CCN(C(=O)C4CCCC4)CC3)CC1)c(=O)n2C [Example 76] | 0.3 to 30 µM
O=C(C1CC1)N1CCN(C(=O)[C@H]2CC[C@H](Cn3c(=O)c4ccccc4n(C(F)F)c3=O)CC2)CC1 [Example 83] | 0.3 to 30 µM

SMILES | IC50
Cn1c(=O)n(C[C@H]2CC[C@H](C(=O)N3CCN(C(=O)C4CC4)CC3)CC2)c2c(Cl)cccc21 [Example 168] | 0.3 to 30 µM
CC(=O)N1CCN(C(=O)[C@H]2CC[C@H](Cn3c(=O)n(C)c4ccc(C)nc43)CC2)CC1 [Example 207] | 0.3 to 30 µM
CC(C)C(=O)N1CCN(C(=O)[C@H]2CC[C@H](Cn3c(=O)n(C)c4ccccc43)CC2)CC1 [Example 61] | 0.3 to 30 µM
O=C(Nc1cccnc1)C1CCC(Cn2c(=O)[nH]c3ccccc3c2=O)CC1 (stereo not drawn) [Example 23] | 0.3 to 30 µM
CCCC(C)C(=O)N1CCN(C(=O)[C@H]2CC[C@H](Cn3c(=O)c4cc(OC)ccc4n(C)c3=O)CC2)CC1 (stereo partly drawn) [Example 124] | 0.3 to 30 µM
COc1ccc2[nH]c(=O)n(C[C@H]3CC[C@H](C(=O)N4CCN(c5ccncc5)CC4)CC3)c(=O)c2c1 [Example 139] | 0.3 to 30 µM
COc1ccc2c(c1)n(C[C@H]1CC[C@H](C(=O)N3CCN(C(=O)C4CCCO4)CC3)CC1)c(=O)n2C (stereo partly drawn) [Example 192] | 0.3 to 30 µM
O=c1[nH]c2ccccc2c(=O)n1C[C@H]1CC[C@H](C(=O)Nc2cccc3cccnc23)CC1 [Example 70] | 0.3 to 30 µM
COc1ccccc1NC(=O)[C@H]1CC[C@H](CN2C(=O)Cc3ccccc3NC2=O)CC1 [Example 120] | 0.3 to 30 µM
COCC(=O)N1CCN(C(=O)[C@H]2CC[C@H](Cn3c(=O)c4ccccc4n(C)c3=O)CC2)CC1 [Example 53] | 0.3 to 30 µM
O=c1[nH]c2ccccc2c(=O)n1C[C@H]1CC[C@H](C(=O)N2CCN(c3ncccn3)CC2)CC1 [Example 1, trans-3-[4-(4-Pyrimidin-2-yl-piperazine-1-carbonyl)-cyclohexylmethyl]-1H-quinazoline-2,4-dione] | 0.3 to 30 µM
COc1ccc2[nH]c(=O)n(C[C@H]3CC[C@H](C(=O)Nc4ccc5oc(C)nc5c4)CC3)c(=O)c2c1 [Example 114] | 0.3 to 30 µM
COc1ccc2c(c1)c(=O)n(C[C@H]1CC[C@H](C(=O)N3CCN(C(=O)C4CCC4)CC3)CC1)c(=O)n2C [Example 129] | 0.3 to 30 µM
COc1cccc(NC(=O)[C@H]2CC[C@H](Cn3c(=O)n(C)c4ccc(OC)nc43)CC2)c1 [Example 209] | 0.3 to 30 µM
COc1ccc2c(c1)c(=O)n(C[C@H]1CC[C@H](C(=O)Nc3ccc4nc(C)oc4c3)CC1)c(=O)n2C [Example 194] | 0.3 to 30 µM
CN1CCN(C(=O)[C@H]2CC[C@H](Cn3c(=O)n(C)c4ccc(C(F)(F)F)cc43)CC2)CC1=O [Example 170] | 0.3 to 30 µM

Continued, values first:

IC50 | SMILES
0.3 to 30 µM | COc1cccc(CN2CCN(C(=O)[C@H]3CC[C@H](Cn4c(=O)[nH]c5ccccc5c4=O)CC3)CC2)c1 [Example 39]
0.3 to 30 µM | COc1ccc2[nH]c(=O)n(C[C@H]3CC[C@H](C(=O)N4CCN(C)C(=O)C4)CC3)c2c1 [Example 160]
0.3 to 30 µM | COc1ccc2c(c1)c(=O)n(C[C@H]1CC[C@H](C(=O)N3CCN(C(=O)OCC(C)C)CC3)CC1)c(=O)n2C [Example 125]
0.3 to 30 µM | COCC(=O)N1CCN(C(=O)[C@H]2CC[C@H](Cn3c(=O)[nH]c4ccc(OC)cc4c3=O)CC2)[C@H](C)C1 [Example 127]
0.3 to 30 µM | CN1C(=O)N(C[C@H]2CC[C@H](C(=O)N3CCN(c4ccccn4)CC3)CC2)C(=O)Cc2ccccc21 [Example 15, 1-Methyl-3-[trans-4-(4-pyridin-2-yl-piperazine-1-carbonyl)-cyclohexylmethyl]-1,5-dihydro-benzo[d][1,3]diazepine-2,4-dione]
0.3 to 30 µM | COc1ccc2c(c1)c(=O)n(C[C@H]1CC[C@H](C(=O)N3CCN(C(=O)COC(C)C)CC3)CC1)c(=O)n2C [Example 141]
0.3 to 30 µM | CC(C)N1CCN(C(=O)[C@H]2CC[C@H](Cn3c(=O)[nH]c4ccccc4c3=O)CC2)CC1 [Example 41]
0.3 to 30 µM | COCC(=O)N1CCN(C(=O)[C@H]2CC[C@H](Cn3c(=O)[nH]c4ccccc4c3=O)CC2)CC1 [Example 31]
0.3 to 30 µM | COc1ccc(N2CCN(C(=O)C3CCC(Cn4c(=O)[nH]c5ccccc5c4=O)CC3)CC2)cc1 (stereo not drawn) [Example 28]
0.3 to 30 µM | COCC(=O)N1CCN(C(=O)[C@H]2CC[C@H](Cn3c(=O)n(C)c4ccc(OC)cc43)CC2)CC1 [Example 183]
0.3 to 30 µM | O=C(C1CC1)N1CCN(C(=O)[C@H]2CC[C@H](Cn3c(=O)c4ccccc4n(CC4CC4)c3=O)CC2)CC1 [Example 73]
0.3 to 30 µM | O=C1Nc2ccccc2CN1C[C@H]1CC[C@H](C(=O)N2CCN(c3ccccc3)CC2)CC1 [Example 45]
0.3 to 30 µM | COc1ccc2[nH]c(=O)n(C[C@H]3CC[C@H](C(=O)N4CCN(C(=O)c5ccno5)CC4)CC3)c(=O)c2c1 [Example 102]
0.3 to 30 µM | CCOc1ccc2[nH]c(=O)n(C[C@H]3CC[C@H](C(=O)N4CCN(C(=O)C(C)C)CC4)CC3)c(=O)c2c1 [Example 162]
0.3 to 30 µM | COc1ccc2c(c1)c(=O)n(C[C@H]1CC[C@H](C(=O)Nc3ccncc3)CC1)c(=O)n2C [Example 165]
0.3 to 30 µM | O=C(C1CC1)N1CCN(C(=O)[C@H]2CC[C@H](CN3Cc4ccccc4NC3=O)CC2)CC1 [Example 7, 3-[trans-4-(4-Cyclopropanecarbonyl-piperazine-1-carbonyl)cyclohexylmethyl]-3,4-dihydro-1H-quinazolin-2-one]
0.3 to 30 µM | COCCC(=O)N1CCN(C(=O)[C@H]2CC[C@H](Cn3c(=O)c4cc(OC)ccc4n(C)c3=O)CC2)CC1 [Example 137]
0.3 to 30 µM | COc1ccc2[nH]c(=O)n(C[C@H]3CC[C@H](C(=O)N4CCN(C(=O)OC(C)C)CC4)CC3)c(=O)c2c1 [Example 103]
0.3 to 30 µM | COc1ccc2c(c1)c(=O)n(C[C@H]1CC[C@H](C(=O)N3CCN(C(=O)C(C)OC)CC3)CC1)c(=O)n2C (stereo partly drawn) [Example 142]
0.3 to 30 µM | COc1ccc2c(c1)c(=O)n(C[C@H]1CC[C@H](C(=O)N3CCN(C(=O)C4CC4)[C@H](C)C3)CC1)c(=O)n2C [Example 150]
0.3 to 30 µM | COc1ccc2c(c1)c(=O)n(C[C@H]1CC[C@H](C(=O)N3CCN(C(=O)n4ccnc4)CC3)CC1)c(=O)n2C [Example 171]
0.3 to 30 µM | O=C(CCC1CCCC1)N1CCN(C(=O)[C@H]2CC[C@H](Cn3c(=O)[nH]c4ccccc4c3=O)CC2)CC1 [Example 32]
0.3 to 30 µM | COc1ccc2c(n1)n(C[C@H]1CC[C@H](C(=O)N3CCOCC3)CC1)c(=O)n2C [Example 167]
0.3 to 30 µM | COc1ccc2c(c1)c(=O)n(C[C@H]1CC[C@H](C(=O)Nc3ccc(OC)nc3OC)CC1)c(=O)n2C [Example 155]
0.3 to 30 µM | CCOC(=O)N1CCN(C(=O)[C@H]2CC[C@H](Cn3c(=O)c4cc(OC)ccc4n(C)c3=O)CC2)CC1 [Example 176]
